The text below walks through data of ChEMBL document CHEMBL3988442, “University of Dundee, Small-Polar-MMV Screening Library” (2021).

Assay [1] in a line: microbe, parasite or virus in culture. The note with it: Mycobacterium tuberculosis, 72 h, read-out: pIC50 (converted).
A short description of assay [2]: microbe, parasite or virus in culture. The note with it: Mycobacterium tuberculosis, 96 h, read-out: pIC50 (converted).

Regarding `Cc1cccc(NC(=O)C(C)Oc2ccc3c(c2)OCO3)n1` (stereo unspecified), the figures for the IC50 in assay [1] and in assay [2] were 16 µM and 5.27 µM, respectively.

As to `CNCC(=O)NC1CCN(Cc2ccc(Br)cc2)CC1`, the IC50 is 257 µM in assay [1] and 294 µM in assay [2].

As to `CC(C)COc1cncc(N(C)C2CCN(c3ncccn3)CC2)n1`, the figures for the IC50 in assay [1] and in assay [2] were 30 µM and 40.6 µM, respectively.

Regarding `CC1CN(CCCOc2ccc(C#N)cc2)CCN1` (stereo unspecified), the values for the IC50 in assay [1] and in assay [2] were more than 501 µM and 390 µM, respectively.

Turning to `NCCCOc1ncc(C(F)(F)F)cc1Cl`, the IC50 in assay [1] was 101 µM; in assay [2], 238 µM.

Turning to `COc1ccnc(N2CCCNCC2)n1`, the IC50 in assay [1] is 229 µM; in assay [2] it was more than 501 µM.

As for `Cc1ccc(N(CC(=O)c2ccc(Br)cc2)C2=NCCCCC2)cc1`, the IC50 in assay [1] was 11.1 µM; in assay [2], 23.1 µM.

`CN(CC(N)=O)Cc1ccccc1N1CCCC1`: the IC50 in assay [1] was 278 µM; in assay [2] it was more than 501 µM.

For `CN(C1CCCC1)S(=O)(=O)NCCNc1ccccn1`, the IC50 in assay [1] was 94.1 µM; in assay [2] it was 189 µM.

Regarding `O=C(c1ccc(Br)o1)N1CCN(Cc2ccco2)CC1`, the IC50 is 97.2 µM in assay [1] and 92 µM in assay [2].

In the case of `O=C(Cc1cccs1)Nc1cnn(C2CCOC2)c1` (stereo unspecified), the IC50 in assay [1] and in assay [2] was more than 50.1 µM throughout.

Turning to `O=C(NC1CCCc2occc21)c1cccnc1` (stereo unspecified), the IC50 in assay [1] was 57.8 µM; in assay [2], 79.9 µM.

On to `CN1Cc2cc(-c3csc(N)n3)ccc2NC1=O`, for which the IC50 in assay [1] and in assay [2] was more than 501 µM each time.

In the case of `CSCc1cccc(CNC(=O)c2cc[nH]n2)c1`, the figures for the IC50 in assay [1] and in assay [2] were 308 µM and more than 501 µM, respectively.

With `O=C(CSc1ccc(F)cc1)N1CCC1`, the figures for the IC50 in assay [1] and in assay [2] were 180 µM and more than 501 µM, respectively.

`CCOc1cc([C@H]2N[C@@H](c3nc(C)cs3)Cc3ccsc32)ccc1OC`: the IC50 was 12.8 µM in assay [1] and more than 50.1 µM in assay [2].

With `COCCCOc1ccc2c(c1)OCCO2`, the IC50 in assay [1] is 92.8 µM; in assay [2] it was 109 µM.

Regarding `COc1ccc(CCN)c(O)c1`, the IC50 in assay [1] is 153 µM; in assay [2], 435 µM.

Turning to `CC(C)Nc1cc(Cl)ccc1OCCS(C)(=O)=O`, the figures for the IC50 in assay [1] and in assay [2] were 191 µM and 222 µM, respectively.

As to `CC(C)CC(O)C(=O)NCc1cc2ccccc2[nH]1` (stereo unspecified), the IC50 in assay [1] and in assay [2] was more than 501 µM in each case.

Take `COCCNC(=O)Nc1ccc(OC(F)F)c(F)c1`: the IC50 in assay [1] was 273 µM; in assay [2], 253 µM.

Consider `CCOC(=O)c1cc(C(C)(O)CCC=C(C)C)on1` (stereo unspecified), for which the results for the IC50 in assay [1] and in assay [2] were 36.4 µM and 25.8 µM, respectively.

As to `CN1CCN(C(=O)c2cc3ccccc3o2)CC1`, the values for the IC50 in assay [1] and in assay [2] were 207 µM and 203 µM, respectively.

As to `Clc1ccc2c(c1)CNCCO2`, the IC50 is 33.4 µM in assay [1] and 67.8 µM in assay [2].

As to `CCN1CCC(CNCc2c[nH]nc2C(C)(C)C)C1` (stereo unspecified), the IC50 in assay [1] is more than 50.1 µM; in assay [2], 16.4 µM.

In the case of `COc1ccc(CN2CC[C@@H](O)[C@@H]2Cc2cnn(C)c2)cc1`, the IC50 in assay [1] and in assay [2] was more than 50.1 µM each time.

Consider `CNC(=O)C(C)Sc1nnnn1-c1ccccc1C` (stereo unspecified), for which the IC50 in assay [1] was 210 µM; in assay [2], 213 µM.

As to `O=C(NCCSc1ccccn1)C1CCCCO1` (stereo unspecified), the IC50 in assay [1] is 476 µM; in assay [2] it was more than 501 µM.

For the compound `COc1ccccc1OCC(C)CN` (stereo unspecified), the IC50 in assay [1] is 82.9 µM; in assay [2] it was 123 µM.

Consider `COc1cc(OC)cc(N2CCC(N)C2)c1` (stereo unspecified), for which the IC50 in assay [1] is 232 µM; in assay [2], 213 µM.

For the compound `CCCC(C)CS(=O)(=O)NCc1ccncc1` (stereo unspecified), the values for the IC50 in assay [1] and in assay [2] were 115 µM and 123 µM, respectively.

Turning to `Cc1nsc(C(=O)NCCc2cccs2)n1`, the IC50 was 13.5 µM in assay [1] and 32.7 µM in assay [2].

As for `NCC(=O)N1CCCC(CCc2ccccc2F)C1` (stereo unspecified), the IC50 is 271 µM in assay [1] and 256 µM in assay [2].

Consider `CCC1c2ccsc2CCN1C(=O)c1ccc(CN)o1` (stereo unspecified), for which the IC50 in assay [1] was 167 µM; in assay [2] it was 370 µM.

With `CCSC1=Nc2c(cnn2-c2ccc(Cl)cc2)C2=NCCCN12`, the IC50 in assay [1] is 12.8 µM; in assay [2] it was 17.1 µM.

Turning to `Cc1cccc(C)c1NC(=O)CC(CN1CCN(C)CC1)C(=O)O` (stereo unspecified), the values for the IC50 in assay [1] and in assay [2] were 32.8 µM and more than 50.1 µM, respectively.

On to `CSCC(CCO)Nc1ncccc1C(F)(F)F` (stereo unspecified), for which the IC50 is 253 µM in assay [1] and more than 501 µM in assay [2].

Regarding `COCCN1CCN(CCS(=O)(=O)C(F)(F)F)CC1`, the results for the IC50 in assay [1] and in assay [2] were 131 µM and 293 µM, respectively.

`CCC(CO)Nc1ncc(C(F)(F)F)cc1Cl` (stereo unspecified): the IC50 in assay [1] and in assay [2] was more than 501 µM throughout.

Consider `Cc1nc(C2CCCN(C(=O)c3ccc(S(C)(=O)=O)cc3)C2)no1` (stereo unspecified), for which the IC50 in assay [1] and in assay [2] was more than 50.1 µM throughout.

Take `COc1ccc(CN(C(=O)C2CCCS2)c2ccncc2)cc1` (stereo unspecified): the IC50 in assay [1] and in assay [2] was more than 50.1 µM throughout.

Take `COc1ccc(C(O)CNC(=O)Nc2nncs2)cc1` (stereo unspecified): the values for the IC50 in assay [1] and in assay [2] were 195 µM and 380 µM, respectively.

In the case of `OCCOCCN1CCC(=Cc2ccccc2)CC1`, the IC50 is 203 µM in assay [1] and 242 µM in assay [2].

Regarding `Cc1nc(NCCSc2cnn[nH]2)c2c(C)noc2n1`, the IC50 in assay [1] and in assay [2] was more than 50.1 µM throughout.

Take `Nc1cnn(Cc2ccccn2)c1`: the IC50 in assay [1] was 206 µM; in assay [2], more than 501 µM.

Turning to `CC(C)C(C)N(C)Cc1nnc(-c2ccc(Br)s2)o1` (stereo unspecified), the IC50 in assay [1] was 48.4 µM; in assay [2] it was 20.4 µM.

Turning to `CNC(=O)C(C)(C)Oc1cccc(Cl)c1`, the IC50 in assay [1] and in assay [2] was more than 501 µM in each case.

In the case of `C=C(C)c1nc(C#N)c(NCc2ccco2)o1`, the results for the IC50 in assay [1] and in assay [2] were 142 µM and 170 µM, respectively.

Consider `CC(C)Oc1ccc(CNC(=O)N2CCCC2)cn1`, for which the values for the IC50 in assay [1] and in assay [2] were 126 µM and 118 µM, respectively.

In the case of `Cc1noc(COCC(=O)N2CCCCC2c2nccs2)n1` (stereo unspecified), the IC50 in assay [1] and in assay [2] was more than 50.1 µM each time.

For the compound `O=C1CCCN1CCCNS(=O)(=O)c1ccc(Br)s1`, the IC50 in assay [1] was more than 501 µM; in assay [2], 6.97 µM.

For the compound `O=S(=O)(Cc1ccc(Br)cc1)NCCO`, the IC50 in assay [1] and in assay [2] was more than 50.1 µM throughout.

As to `N#Cc1cccc(NCC(=O)NCc2ccco2)c1`, the IC50 in assay [1] is 223 µM; in assay [2] it was 108 µM.

Consider `Cc1c(C(=O)NC[C@H]2CCCN2)n(C)c2ccccc12`, for which the IC50 in assay [1] and in assay [2] was more than 501 µM in each case.

With `CCOC(=O)CSc1ccc(-c2nc(CC)no2)cn1`, the IC50 in assay [1] was 29.9 µM; in assay [2] it was 27.2 µM.

On to `N[C@@H]1C[C@H]1c1ccc2c(c1)OCCO2`, for which the values for the IC50 in assay [1] and in assay [2] were more than 501 µM and 196 µM, respectively.

Consider `OCCNCCNCc1ccc(-c2ccccc2Cl)o1`, for which the results for the IC50 in assay [1] and in assay [2] were 136 µM and 34.4 µM, respectively.

For `CN(Cc1ccco1)C(=O)c1cc(C2CC2)[nH]n1`, the IC50 was 107 µM in assay [1] and 59.3 µM in assay [2].

Take `C[C@@]1(O)CCN(C(=O)CN)C[C@@H]1Cc1ccccc1`: the IC50 in assay [1] is 219 µM; in assay [2], 174 µM.

In the case of `OCCNC1CCCC1`, the IC50 in assay [1] and in assay [2] was more than 501 µM throughout.

For the compound `CCCn1nc(C(=O)NCc2csc(Br)c2)ccc1=O`, the IC50 in assay [1] was 222 µM; in assay [2], 154 µM.

With `O=S(=O)(NC1CCCC1)c1cncc(Cl)c1`, the IC50 was 226 µM in assay [1] and more than 501 µM in assay [2].

With `Cn1cc(NC(=O)C2=Cc3ccccc3OC2)cn1`, the IC50 in assay [1] and in assay [2] was more than 501 µM in each case.

For `O=C(CCC(=O)c1ccc(F)cc1)NCc1ccco1`, the IC50 was 219 µM in assay [1] and more than 501 µM in assay [2].

As for `CCCNC(=O)c1ccc2snnc2c1`, the IC50 in assay [1] is 153 µM; in assay [2] it was 169 µM.

Consider `CN(C)C(=O)c1csc(-c2ccccc2)n1`, for which the IC50 in assay [1] and in assay [2] was more than 501 µM throughout.

For `O=C(Cc1ccc2c(c1)CCCC2)Nc1cccnc1N1CCSCC1`, the values for the IC50 in assay [1] and in assay [2] were 12 µM and 9.97 µM, respectively.

For `COCCCSc1ccc(NCc2scnc2C)cc1`, the IC50 was 25.4 µM in assay [1] and 38.7 µM in assay [2].

With `Cc1ccc(F)c(C(=O)N[C@@H]2CNC[C@H]2O)c1Cl`, the IC50 in assay [1] and in assay [2] was more than 501 µM throughout.

As for `COc1ccc(OCCSCC(=O)NCCC#N)cc1`, the figures for the IC50 in assay [1] and in assay [2] were 195 µM and 288 µM, respectively.

`Cc1[nH]c2ccc(C(N)=O)cc2c1C`: the IC50 in assay [1] is 20.8 µM; in assay [2] it was 41.9 µM.

In the case of `NS(=O)(=O)N1CCN(CC=Cc2ccc(F)cc2)CC1`, the results for the IC50 in assay [1] and in assay [2] were 233 µM and more than 501 µM, respectively.

Consider `COc1ccc2c(c1)CCN2C(=O)C(C)(C)C#N`, for which the IC50 is 156 µM in assay [1] and 293 µM in assay [2].

In the case of `CCc1nnsc1C(=O)NC(CC(C)C)C(=O)OC` (stereo unspecified), the IC50 in assay [1] and in assay [2] was more than 50.1 µM each time.

Take `CS(=O)(=O)NCC(=O)Nc1ccc(-n2cccn2)cc1`: the IC50 in assay [1] and in assay [2] was more than 501 µM each time.

As to `CSCCNC(=O)c1coc(COc2ccc3sc(C)nc3c2)n1`, the IC50 in assay [1] and in assay [2] was more than 50.1 µM in each case.

For the compound `CCOc1ccc(CNS(=O)(=O)N(C)C)cc1C`, the IC50 was 262 µM in assay [1] and more than 501 µM in assay [2].

Regarding `CCC(CO)NCc1ccc(-c2ccc(F)c(Cl)c2)o1` (stereo unspecified), the results for the IC50 in assay [1] and in assay [2] were 35.4 µM and 13.2 µM, respectively.

As to `CCc1ccc(NC(=O)CN2CC[C@@H](N)C2)cc1`, the IC50 in assay [1] is 199 µM; in assay [2], more than 501 µM.

Regarding `CS(=O)(=O)NCC1CCCN(c2ncc(Cl)cc2F)C1` (stereo unspecified), the IC50 in assay [1] was 159 µM; in assay [2], more than 501 µM.

Regarding `CNCCCNC(=O)CCc1ccc(F)cc1`, the IC50 in assay [1] and in assay [2] was more than 501 µM in each case.

In the case of `CS(=O)(=O)N1CCC(NCCSc2cnn[nH]2)CC1`, the IC50 in assay [1] and in assay [2] was more than 501 µM in each case.

`CN1CCN(C(=O)c2cc(-c3cccs3)on2)CC1`: the IC50 in assay [1] is 171 µM; in assay [2] it was 107 µM.
